This note sets out measurements from patent US20010014680A1 (priority 1998, published 2001).

Where a name gives a salt, the structure may show the parent alone.

Data set [1] has as its target T1, human 5HT1A receptor (Homo sapiens, UniProt P08908).
T1 construct: expressed in transfected cells; host or cells: CHO cells, stably transfected
T1 sequence (P08908 1-422): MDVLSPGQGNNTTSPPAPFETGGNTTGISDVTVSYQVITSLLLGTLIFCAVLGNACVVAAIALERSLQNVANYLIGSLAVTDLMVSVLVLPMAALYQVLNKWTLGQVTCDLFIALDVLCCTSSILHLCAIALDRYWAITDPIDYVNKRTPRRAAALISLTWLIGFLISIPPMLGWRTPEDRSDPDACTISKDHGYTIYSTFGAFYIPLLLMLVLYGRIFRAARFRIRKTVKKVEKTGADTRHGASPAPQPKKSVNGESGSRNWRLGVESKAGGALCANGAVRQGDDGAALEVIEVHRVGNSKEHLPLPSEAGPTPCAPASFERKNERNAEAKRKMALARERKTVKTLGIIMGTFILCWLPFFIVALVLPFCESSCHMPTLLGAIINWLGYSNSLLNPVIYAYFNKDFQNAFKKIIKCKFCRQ
Description: 5-HT1A Receptor Intrinsic Activity Assay (cAMP). To be noted: reversal of forskolin (1 μM) stimulated cAMP in CHO cells stably transfected with human 5-HT1A receptor; RIA. The data set is classed as cell-based. The method, then: 5-HT1A Receptor Intrinsic Activity Assay
The intrinsic activity of compounds of the present invention was established by testing the claimed compounds ability to reverse the stimulation of cyclic adenosinemonophosphate (cAMP) in CHO cells stably transfected with the human 5-HT1A receptor.
Stably transfected CHO cells were grown in DMEM containing 10% heat inactivated FBS and non-essential amino acids. The cells are plated at a density of […] per well in a 24 well plate and incubated for 2 days in a CO2 incubator. On the second day, the media is replaced with 0.5 mL treatment buffer (DMEM + 25 mM HEPES, 5 mM theophylline, 10 μM pargyline) and incubated for 10 minutes at 37° C. Wells are treated with forskolin (1 μM final concentration) followed immediately by the test compound (0.1 and 1 μM for initial screen) and incubated for an additional 10 minutes at 37° C. The reaction is terminated by removal of the media and addition of 0.5 mL ice cold assay buffer (supplied in the RIA kit). Plates are stored at −20° C. prior to assessment of cAMP formation by RIA. EC50 values are determined for the active test compounds. Compounds shown to have no agonist activities (Emax=0%) are further analyzed for their ability to reverse agonist induced activity. In separate experiments, 6 concentrations of antagonist are preincubated for 20 minutes prior to the addition of agonist and forskolin. Cells are harvested as described above. The cAMP kit is supplied by Amersham and the RIA is performed as per kit instructions, and calculations of IC50 performed by GraphPad Prism.

Data set [2] concerns the target T1, human 5HT1A receptor. In words: 5-HT1A Receptor Binding Assay ([3H] 8-OH-DPAT displacement). To be noted: displacement of [3H] 8-OH-DPAT (1.5 nM) in CHO cells stably transfected with human 5HT1A receptor. The method, then: 5-HT1A Receptor Binding Assay
High affinity for the serotonin 5-HT1A receptor was established by testing the claimed compound's ability to displace [^3H] 8-OH-DPAT binding in CHO cells stably transfected with the human 5HT1A receptor. Stably transfected CHO cells are grown in DMEM containing 10% heat inactivated FBS and non-essential amino acids. Cells are scraped off the plate, transferred to centrifuge tubes, and washed twice by centrifugation (2000 rpm for 10 min., 4° C.) in buffer (50 mM Tris pH 7.5). The resulting pellets are aliquoted and placed at −80° C. On the day of assay, the cells are thawed on ice and resuspended in buffer. The binding assay is performed in a 96 well microtiter plate in a total volume of 250 μL. Non-specific binding is determined in the presence of […], final ligand concentration is 1.5 nM. Following a 30 minute incubation at room temperature, the reaction is terminated by the addition of ice cold buffer and rapid filtration through a GF/B filter presoaked for 30 minutes in 0.5% PEI. Compounds are initially tested in a single point assay to determine percent inhibition at […], and Ki values are determined for the active compounds.
In general terms: Displacement assays read how much labelled ligand stays bound in the presence of the test substance.

What is called Emax is the size of the effect at its maximum, as opposed to the concentration needed. Turning to `COc1ccccc1N1CCN(CC2CCNCC2)CC1` [Example 1, 1-(2-Methoxy-phenyl)-4-piperidin-4-ylmethyl-piperazine], the maximal effect (Emax) in data set [1] worked out at 0%.
Usually Ki stands for a measure of affinity in units of concentration, obtained from inhibition or displacement. Turning to `COc1ccccc1N1CCN(CC2CCCNC2)CC1` (centres unmarked) [Example 6, 1-(2-Methoxy-phenyl)-4-piperidin-3-ylmethyl-piperazine], in data set [2], the Ki is 2 nM. Moreover, the Emax in data set [1] was 0%.
In data set [2], `COc1ccccc1N1CCN(CC2CCCN(Cc3ccccc3)C2)CC1` (centres unmarked) [Example 9, 1-(1-Benzyl-piperidin-3-ylmethyl)-4-(2-methoxy-phenyl)-piperazine] returned a Ki of 14 nM. The Emax in data set [1] came to 79%.
`COc1ccccc1N1CCN(CC2CCN(CC3CCCCC3)CC2)CC1` [Example 3] came in with an inhibitory constant (Ki) in data set [2] of 8.4 nM. Further, the Emax in data set [1] was 89%.
By melting point is commonly meant the temperature, or range, at which the solid turns liquid. Molecule `O=C(C1CCNCC1)N1CCN(c2cccc3[nH]ccc23)CC1` (as salt: HCl) [Example 11, [4-(1H-Indol-4-yl)-piperazin-1-yl]-piperidin-4-yl-methanone] showed a melting point of over 240 °C.
